Measured values taken from patent US10131652B2, “Pyrimidinyloxy benzene derivatives as herbicides” (E. I. DU PONT DE NEMOURS AND COMPANY, priority 2014, dated 2018).

Legend:
Type in all cases: in vivo
[1] = tested on: ducksalad (Heteranthera limosa); test: Test C flooded paddy test plant response; conditions: Flood, 250 g ai/ha; scale of 0 to 100 where 0 is no effect and 100 is complete control; 13 to 15 days
Description: (§1) Plant species in the flooded paddy test selected from rice (Oryza sativa), small-flower umbrella sedge (Cyperus difformis), ducksalad (Heteranthera limosa), and bamyardgrass (Echinochloa crus-galli) were grown to the 2-leaf stage for testing. At time of treatment, test pots were flooded to 3 cm above the soil surface, treated by application of test compounds directly to the paddy water, and then maintained at that water depth for the duration of the test. Treated plants and controls were maintained in a greenhouse for 13 to 15 days, after which time all species were compared to controls and visually evaluated. Plant response ratings, summarized in Table C, are based on a scale of 0 to 100 where 0 is no effect and 100 is complete control. A dash (-) response means no test result.

[2] = tested on: barnyardgrass (Echinochloa crus-galli); test: Test C flooded paddy test plant response; conditions: Flood, 250 g ai/ha; scale of 0 to 100 where 0 is no effect and 100 is complete control; 13 to 15 days
Description: as §1

[3] = tested on: small-flower umbrella sedge (Cyperus difformis); test: Test C flooded paddy test plant response; conditions: Flood, 250 g ai/ha; scale of 0 to 100 where 0 is no effect and 100 is complete control; 13 to 15 days
Description: as §1

[4] = tested on: rice (Oryza sativa); test: Test C flooded paddy test plant response; conditions: Flood, 250 g ai/ha; scale of 0 to 100 where 0 is no effect and 100 is complete control; 13 to 15 days
Description: as §1

[5] = tested on: blackgrass (Alopecurus myosuroides); test: Test B postemergence plant response
Source text: (§2) At the same time, plants selected from these crop and weed species and also blackgrass (Alopecurus myosuroides), and galium (catchweed bedstraw, Galium aparine) were planted in pots containing the same blend of loam soil and sand and treated with postemergence applications of test chemicals formulated in the same manner. Plants ranged in height from 2 to 10 cm and were in the one- to two-leaf stage for the postemergence treatment. Treated plants and untreated controls were maintained in a greenhouse for approximately 10 days, after which time all treated plants were compared to untreated controls and visually evaluated for injury. Plant response ratings, summarized in Table B, are based on a 0 to 100 scale where 0 is no effect and 100 is complete control. A dash (-) response means no test result.

[6] = tested on: galium (catchweed bedstraw, Galium aparine); test: Test B postemergence plant response
Source text: as §2

[7] = tested on: giant foxtail (Setaria faberii); test: Test B pre-/postemergence plant response
Source text: as §2, with “Seeds of plant species selected from bamyardgrass (Echinochloa crus-galli), kochia (Kochia scoparia), ragweed (common ragweed, Ambrosia elatior), Italian ryegrass (Lolium multiflorum), large (Lg) crabgrass (Digitaria sanguinalis), giant foxtail (Setaria faberii), momingglory (Ipomoea spp.), pigweed (Amaranthus retroflexus), velvetleaf (Abutilon theophrasti), wheat (Triticum aestivum), and corn (Zea mays) were planted into a blend of loam soil and sand and treated preemergence with a directed soil spray using test chemicals formulated in a non-phytotoxic solvent mixture which included a surfactant. At” for “At”

[8] = tested on: barnyardgrass (Echinochloa crus-galli); test: Test B pre-/postemergence plant response
Source text: as §2, with “Seeds of plant species selected from bamyardgrass (Echinochloa crus-galli), kochia (Kochia scoparia), ragweed (common ragweed, Ambrosia elatior), Italian ryegrass (Lolium multiflorum), large (Lg) crabgrass (Digitaria sanguinalis), giant foxtail (Setaria faberii), momingglory (Ipomoea spp.), pigweed (Amaranthus retroflexus), velvetleaf (Abutilon theophrasti), wheat (Triticum aestivum), and corn (Zea mays) were planted into a blend of loam soil and sand and treated preemergence with a directed soil spray using test chemicals formulated in a non-phytotoxic solvent mixture which included a surfactant. At” for “At”

[9] = tested on: pigweed (Amaranthus retroflexus); test: Test B pre-/postemergence plant response
Source text: as §2, with “Seeds of plant species selected from bamyardgrass (Echinochloa crus-galli), kochia (Kochia scoparia), ragweed (common ragweed, Ambrosia elatior), Italian ryegrass (Lolium multiflorum), large (Lg) crabgrass (Digitaria sanguinalis), giant foxtail (Setaria faberii), momingglory (Ipomoea spp.), pigweed (Amaranthus retroflexus), velvetleaf (Abutilon theophrasti), wheat (Triticum aestivum), and corn (Zea mays) were planted into a blend of loam soil and sand and treated preemergence with a directed soil spray using test chemicals formulated in a non-phytotoxic solvent mixture which included a surfactant. At” for “At”

[10] = tested on: Italian ryegrass (Lolium multiflorum); test: Test B pre-/postemergence plant response
Source text: as §2, with “Seeds of plant species selected from bamyardgrass (Echinochloa crus-galli), kochia (Kochia scoparia), ragweed (common ragweed, Ambrosia elatior), Italian ryegrass (Lolium multiflorum), large (Lg) crabgrass (Digitaria sanguinalis), giant foxtail (Setaria faberii), momingglory (Ipomoea spp.), pigweed (Amaranthus retroflexus), velvetleaf (Abutilon theophrasti), wheat (Triticum aestivum), and corn (Zea mays) were planted into a blend of loam soil and sand and treated preemergence with a directed soil spray using test chemicals formulated in a non-phytotoxic solvent mixture which included a surfactant. At” for “At”

[11] = tested on: corn (Zea mays); test: Test B pre-/postemergence plant response
Source text: as §2, with “Seeds of plant species selected from bamyardgrass (Echinochloa crus-galli), kochia (Kochia scoparia), ragweed (common ragweed, Ambrosia elatior), Italian ryegrass (Lolium multiflorum), large (Lg) crabgrass (Digitaria sanguinalis), giant foxtail (Setaria faberii), momingglory (Ipomoea spp.), pigweed (Amaranthus retroflexus), velvetleaf (Abutilon theophrasti), wheat (Triticum aestivum), and corn (Zea mays) were planted into a blend of loam soil and sand and treated preemergence with a directed soil spray using test chemicals formulated in a non-phytotoxic solvent mixture which included a surfactant. At” for “At”

[12] = tested on: ragweed (common ragweed, Ambrosia elatior); test: Test B pre-/postemergence plant response
Source text: as §2, with “Seeds of plant species selected from bamyardgrass (Echinochloa crus-galli), kochia (Kochia scoparia), ragweed (common ragweed, Ambrosia elatior), Italian ryegrass (Lolium multiflorum), large (Lg) crabgrass (Digitaria sanguinalis), giant foxtail (Setaria faberii), momingglory (Ipomoea spp.), pigweed (Amaranthus retroflexus), velvetleaf (Abutilon theophrasti), wheat (Triticum aestivum), and corn (Zea mays) were planted into a blend of loam soil and sand and treated preemergence with a directed soil spray using test chemicals formulated in a non-phytotoxic solvent mixture which included a surfactant. At” for “At”

[13] = tested on: wheat (Triticum aestivum); test: Test B pre-/postemergence plant response
Source text: as §2, with “Seeds of plant species selected from bamyardgrass (Echinochloa crus-galli), kochia (Kochia scoparia), ragweed (common ragweed, Ambrosia elatior), Italian ryegrass (Lolium multiflorum), large (Lg) crabgrass (Digitaria sanguinalis), giant foxtail (Setaria faberii), momingglory (Ipomoea spp.), pigweed (Amaranthus retroflexus), velvetleaf (Abutilon theophrasti), wheat (Triticum aestivum), and corn (Zea mays) were planted into a blend of loam soil and sand and treated preemergence with a directed soil spray using test chemicals formulated in a non-phytotoxic solvent mixture which included a surfactant. At” for “At”

[14] = tested on: kochia (Kochia scoparia); test: Test B pre-/postemergence plant response
Source text: as §2, with “Seeds of plant species selected from bamyardgrass (Echinochloa crus-galli), kochia (Kochia scoparia), ragweed (common ragweed, Ambrosia elatior), Italian ryegrass (Lolium multiflorum), large (Lg) crabgrass (Digitaria sanguinalis), giant foxtail (Setaria faberii), momingglory (Ipomoea spp.), pigweed (Amaranthus retroflexus), velvetleaf (Abutilon theophrasti), wheat (Triticum aestivum), and corn (Zea mays) were planted into a blend of loam soil and sand and treated preemergence with a directed soil spray using test chemicals formulated in a non-phytotoxic solvent mixture which included a surfactant. At” for “At”

[15] = 125 g ai/ha, postemergence, 0 to 100 scale, 0 no effect, 100 complete control
[16] = Postemergence, 31 g ai/ha, 0 to 100 scale (0 no effect, 100 complete control)
[17] = 31 g ai/ha, Preemergence, 0 to 100 scale where 0 is no effect and 100 is complete control
[18] = Preemergence, 125 g ai/ha, 0 to 100 scale (0 no effect, 100 complete control)
[19] = 31 g ai/ha, Postemergence, 0 to 100 scale, 0 no effect, 100 complete control
[20] = Preemergence, 31 g ai/ha, 0 to 100 scale (0 no effect, 100 complete control)
[21] = Preemergence, 125 g ai/ha, 0 to 100 scale where 0 is no effect and 100 is complete control

In the case of N#Cc1ccnc(-c2ccccc2Oc2ncc(Cl)cn2)c1 [Compound 188], the “Ducksalad plant response rating” value [1] is reported as 30, the “Barnyardgrass plant response rating” value [2] is reported as 0 and the “Sedge, Umbrella plant response rating” value [3] is reported as 0. The “Rice plant response rating” value [4] was 0, the “Plant response rating, Blackgrass” value [5, 15] was 20 and the “Plant response rating, Blackgrass” value [5, 16] was 0. For the same compound, the “Plant response rating, Galium” value [6, 15] was 50, the “Plant response rating, Galium” value [6, 16] was 0 and the “Plant response rating, Foxtail, Giant” value [7, 17] was 0. The “Plant response rating, Foxtail, Giant” value [7, 15] was 20, the “Plant response rating, Foxtail, Giant” value [7, 16] was 0 and the “Foxtail, Giant plant response rating” value [7, 18] was 40. The “Plant response rating, Barnyardgrass” value [8, 17] was 0, the “Plant response rating, Barnyardgrass” value [8, 15] was 20 and the “Plant response rating, Barnyardgrass” value [8, 16] was 0. For the same compound, the “Barnyardgrass plant response rating” value [8, 18] was 20, the “Plant response rating, Pigweed” value [9, 17] was 0 and the “Plant response rating, Pigweed” value [9, 15] was 60. For the same compound, the “Plant response rating, Pigweed” value [9, 16] was 0, the “Pigweed plant response rating” value [9, 18] was 100 and the “Plant response rating, Ryegrass, Italian” value [10, 17] was 0. For the same compound, the “Plant response rating, Ryegrass, Italian” value [10, 15] was 0, the “Plant response rating, Ryegrass, Italian” value [10, 16] was 0 and the “Ryegrass, Italian plant response rating” value [10, 18] was 0. The “Plant response rating, Corn” value [11, 15] was 30, the “Plant response rating, Corn” value [11, 16] was 0 and the “Plant response rating, Ragweed” value [12, 17] was 0. For the same compound, the “Plant response rating, Ragweed” value [12, 15] was 20, the “Plant response rating, Ragweed” value [12, 16] was 0 and the “Ragweed plant response rating” value [12, 18] was 0. For the same compound, the “Plant response rating, Wheat” value [13, 15] was 20, the “Plant response rating, Wheat” value [13, 16] was 0 and the “Plant response rating, Kochia” value [14, 17] was 0. The “Plant response rating, Kochia” value [14, 15] was 90, the “Plant response rating, Kochia” value [14, 16] was 0 and the “Kochia plant response rating” value [14, 18] was 30.
N#Cc1cc(-c2ccccc2Oc2ncc(Cl)cn2)no1 [Compound 38] was tested, and the “Ducksalad plant response rating” value [1] was 60, the “Barnyardgrass plant response rating” value [2] was 0 and the “Sedge, Umbrella plant response rating” value [3] was 0. The “Rice plant response rating” value [4] was 0, the “Plant response rating, Blackgrass” value [5, 19] was 0 and the “Plant response rating, Blackgrass” value [5, 15] was 0. The “Plant response rating, Galium” value [6, 19] was 20, the “Plant response rating, Galium” value [6, 15] was 30 and the “Plant response rating, Foxtail, Giant” value [7, 19] was 0. The “Plant response rating, Foxtail, Giant” value [7, 15] was 0, the “Foxtail, Giant plant response rating” value [7, 20] was 0 and the “Plant response rating, Foxtail, Giant” value [7, 21] was 0. The “Plant response rating, Barnyardgrass” value [8, 19] was 0, the “Plant response rating, Barnyardgrass” value [8, 15] was 0 and the “Barnyardgrass plant response rating” value [8, 20] was 0. For the same compound, the “Plant response rating, Barnyardgrass” value [8, 21] was 0, the “Plant response rating, Pigweed” value [9, 19] was 0 and the “Plant response rating, Pigweed” value [9, 15] was 20. For the same compound, the “Pigweed plant response rating” value [9, 20] was 0, the “Plant response rating, Pigweed” value [9, 21] was 40 and the “Plant response rating, Ryegrass, Italian” value [10, 19] was 0. For the same compound, the “Plant response rating, Ryegrass, Italian” value [10, 15] was 0, the “Ryegrass, Italian plant response rating” value [10, 20] was 0 and the “Plant response rating, Ryegrass, Italian” value [10, 21] was 0. The “Plant response rating, Corn” value [11, 19] was 0, the “Plant response rating, Corn” value [11, 15] was 0 and the “Plant response rating, Ragweed” value [12, 19] was 0. For the same compound, the “Plant response rating, Ragweed” value [12, 15] was 0, the “Ragweed plant response rating” value [12, 20] was 0 and the “Plant response rating, Ragweed” value [12, 21] was 0. The “Plant response rating, Wheat” value [13, 19] was 0, the “Plant response rating, Wheat” value [13, 15] was 0 and the “Plant response rating, Kochia” value [14, 19] was 0. For the same compound, the “Plant response rating, Kochia” value [14, 15] was 30, the “Kochia plant response rating” value [14, 20] was 0 and the “Plant response rating, Kochia” value [14, 21] was 0.
